The results in this text go back to the METLIN SMRT retention time set (Domingo-Almenara et al. 2019).

The series can be described thus: gradient 5% acetonitrile 3 min, to 50% in 2 min, to 85% in 15 min, held 3 min, 100 µL/min. Conditions: column: Zorbax Extend-C18 2.1 x 50 mm; eluents: water / acetonitrile, 0.1% formic acid. The gist of the method: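 Retention times come from adduct peaks that were picked computationally and then checked by hand. The standards, pure and pooled in mixtures of ~100 molecules, were run on a Zorbax Extend-C18 column (2.1 × 50 mm, 1.8 μm) at 100 μL/min with water and acetonitrile, each with 0.1% formic acid. Detection was by quadrupole time-of-flight mass spectrometry in positive and negative ionization mode, with a dead volume of 40 μL and a dwell volume of 900 μL.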
`COC(=O)c1ccc2c(=O)n(CCc3ccccc3)c(N3CCOCC3)nc2c1` registered an RP-LC retention time of 995 s.

`CCn1nccc1-c1cccc(-c2noc(-c3cccc(Cl)c3)n2)c1` showed an RP-LC retention time of 1360 s. In the case of `O=C(CCc1nc(-c2ccc(N3CCCCC3)cc2)no1)N1CCC2(CC1)OCCO2` it was 798 s.

`Cc1sc2cc(C(=O)N3CCN(c4ccccc4F)CC3)[nH]c2c1CN1CCOCC1` yielded an RP-LC retention time of 704 s. In the case of `Cc1cccc(Cn2nc(-c3nc(-c4ccc(F)cc4)no3)ccc2=O)c1` it was 1160 s; in that of `CC(NC(=O)c1csc(C(=O)NC2CCCC2)n1)c1ccc(F)cc1` (stereo unspecified), 931 s. In the case of `O=C(c1cn(Cc2ccccc2)cc2c(=O)n(-c3ccccc3)nc1-2)N1CCc2ccccc21` it was 916 s; in that of `Cc1cccc2c(C(N)=O)cc(=O)[nH]c12`, 596 s. In the case of `Cc1cc(-c2ccc(S(=O)(=O)N3CCC(C(=O)N4CCCCCC4)CC3)o2)n[nH]1` it was 772 s; in that of `CCn1cnc(S(=O)(=O)N2CCCC(C(=O)Nc3ccc(C)cc3)C2)c1` (stereo unspecified), 748 s; in that of `COc1ccc(CNC(=O)Cn2c(C)cc(-c3nnc(C4CCC4)o3)c2C)cc1`, 818 s. For the compound `CCCSCCCNC(=O)c1cc2n(n1)CCCN(Cc1ccccc1)C2=O`, the RP-LC retention time stood at 878 s. In the case of `CCc1nc2cccnc2n1CCN1CCN(C(=O)Nc2ccc(Br)cc2F)CC1` it was 624 s. In the case of `CCN(CCN(C)C)c1ccc(C(=O)O)cc1NS(=O)(=O)c1cccc(C)c1` it was 620 s; in that of `COCCC1CCN(C(=O)c2cc(F)ccc2F)CC1`, 749 s. The result for `c1ccc(SCc2nnc3sc(-c4cccnc4)nn23)cc1` reads 742 s; that for `COc1ccc(Cl)cc1NC(=O)c1cc(C)n2nccc2n1`, 942 s; that for `O=C(CCC1CCCC1)NCCC1CCN(C(=O)Nc2ccc(F)cc2F)CC1`, 880 s.

As to `CCOC(=O)c1ccc2nc(NC(=O)c3cccc([N+](=O)[O-])c3)sc2c1`, the RP-LC retention time came to 959 s.

`Cc1cc(-c2csc(S(=O)(=O)N(Cc3cccs3)C3CCCC3)c2)on1` displayed an RP-LC retention time of 1190 s. The result for `Cc1ccc(NC(=O)c2sc(-n3cccc3)nc2C(C)C)cc1F` reads 1320 s. The result for `COc1ccc(-n2c(=O)c(C(=O)NCC3CC3)c(O)c3cccnc32)cc1` reads 1110 s; that for `O=C(c1cnccn1)N1CCCC1c1nc(CCOCC2CC2)no1` (stereo unspecified), 698 s. As for `CC(C)CCNC(=O)C1(C)CN(S(=O)(=O)c2ccccc2)CC(=O)N1c1cccc(Cl)c1` (stereo unspecified), the RP-LC retention time amounted to 1020 s. In the case of `O=C(NCc1ccco1)N1CCc2nc(-c3ccc(F)cc3)ncc2C1` it was 813 s; in that of `Cc1ccc2c(c1)NC(=O)c1cc(NC(=O)Cc3ccc(F)cc3)ccc1O2`, 842 s; in that of `Cc1nn2c(CNC(=O)c3ccc(F)c(F)c3)c(C)nc2s1`, 634 s. In the case of `COc1ccc(CC(=O)NCC2CCN(C(=O)c3cc4ccccc4o3)CC2)cc1OC` it was 703 s; in that of `CCOc1ccccc1C(=O)Nc1cccn2cnnc12`, 772 s; in that of `CC(C)c1ccc(S(=O)(=O)N2CCc3c(c(-c4nnc(-c5ccccc5F)o4)nn3C)C2)cc1`, 1070 s. The result for `COc1ccc(-c2nc3ncccn3c2Nc2ccc(C)cc2C)cc1` reads 800 s. As to `O=C(OCC(=O)c1ccc(Cl)cc1Cl)c1ccc2ccccc2n1`, the RP-LC retention time turned out to be 991 s. In the case of `CCn1ccc(C(=O)N2c3ccccc3CC2c2nc(C3CC3)no2)n1` (stereo unspecified) it was 924 s; in that of `Cn1nnc2cc(C(=O)NCc3ccc4c(c3)OCO4)ccc21`, 686 s. In the case of `Cc1cccn2cc(C(=O)NCc3cc(F)ccc3F)nc12` it was 655 s; in that of `CCN(CC)S(=O)(=O)c1ccc2c(c1)N(CC(=O)N1CCOCC1)C(=O)C1CCCCN21` (stereo unspecified), 777 s; in that of `CCCSCCCNC(=O)c1cc2n(n1)CCCN(Cc1ccc(F)cc1)C2=O`, 827 s. As to `COc1ccc(C(=O)NC2CCN(c3cc(-c4cccs4)[nH]n3)C2)c(OC)c1` (stereo unspecified), the RP-LC retention time was determined as 724 s.

Regarding `COc1ccc(S(=O)(=O)NC2CCc3nnc(C)n3CC2)cc1Cl` (stereo unspecified), the RP-LC retention time amounted to 641 s.

In turn, `COCC(=O)NCc1nnnn1C1CCCCC1` displayed an RP-LC retention time of 608 s. In the case of `c1ccc(-c2nc3nccc(-c4ccc5c(c4)OCO5)n3n2)cc1` it was 905 s; in that of `CCCN(CCC)S(=O)(=O)c1ccc(C(=O)Nc2nc(-c3ccc(OC)cc3)c(C)s2)cc1`, 1330 s. The result for `CCSc1ccccc1C(=O)Nc1nnc(-c2ccsc2)o1` reads 751 s. As for `Cc1nn2c(CNC(=O)Cc3ccsc3)c(-c3ccccc3)nc2s1`, the RP-LC retention time was determined as 866 s. In the case of `Cc1ccc(/C=C2\CNC/C(=C\c3ccc(C)cc3)C2=O)cc1` it was 734 s; in that of `COCCN1CCn2cc(S(=O)(=O)Nc3ccc(F)cc3F)cc2C1=O`, 694 s; in that of `Cc1cc(C2CCCN2C(=O)Nc2ccccc2C)on1` (stereo unspecified), 748 s. As to `CCCCC(=O)Nc1nc(-c2ccc3c(c2)NC(=O)CO3)cs1`, the RP-LC retention time was found to be 801 s. In the case of `CC(=O)c1cccc(NC(=O)Cn2cc3c(n2)CCCC3)c1` it was 760 s; in that of `CC1SC(C)C(=O)N(CC(=O)NCCc2ccccc2)C1=O` (stereo unspecified), 764 s. For `COC(=O)c1ncn2c1C(=O)N(Cc1cccc(F)c1)C(C)(C(=O)NCc1ccccc1)C2` (stereo unspecified), the RP-LC retention time was found to be 729 s.

Take `CCC(C(=O)NCc1ccc2c(c1)OCO2)n1ccc2cc(S(=O)(=O)N3CCCCC3)ccc21` (stereo unspecified): the RP-LC retention time is 1020 s. In the case of `Cc1c(C(=O)Nc2ccccc2)sc2nc[nH]c(=O)c12` it was 679 s; in that of `Cc1ccccc1NC(=O)N(C)CC1CCOC1` (stereo unspecified), 704 s; in that of `N#Cc1cccc(NC(=O)C(=O)c2ccc[nH]2)c1`, 788 s. For the compound `COc1cccc(Cn2nc3c(S(=O)(=O)N4CCN(c5ccc(F)cc5)CC4)cccn3c2=O)c1`, the RP-LC retention time was 997 s.

`CCc1nc2ccccc2n1CC(O)COc1ccc(C)c(C)c1` (stereo unspecified) registered an RP-LC retention time of 696 s. The result for `Cc1ccc(Nc2nc(C)cc(N3CCN(S(=O)(=O)c4c(C)cc(C)cc4C)CC3)n2)cc1` reads 917 s.

As for `O=C(c1ccc2ccccc2n1)N1CC2CN(S(=O)(=O)c3ccccc3)CC(C1)O2`, the RP-LC retention time turned out to be 769 s. In the case of `Cc1sc(-n2c(C)c3c(C)nnc(C)c3c2C)nc1-c1ccccc1` it was 687 s; in that of `CCc1cc(C(=O)Nc2cc(C)ccc2OC)nc2ccnn12`, 1190 s.
